# From US20230295200A1 (REGENTS OF THE UNIVERSITY OF MICHIGAN, priority 2022, published 2023)
# pKi: −log10 of the molar value.
# What was measured:
# STAT6 protein = target: T1, STAT6 protein (Homo sapiens, UniProt P42226); assay: Fluorescence polarization (FP) binding assay, STAT6; conditions: FP competition, 5 nM fluorescein-labeled tracer, 200 nM protein, PBS pH7.4; read-out: Binding STAT6
# T1 sequence (P42226 1-847): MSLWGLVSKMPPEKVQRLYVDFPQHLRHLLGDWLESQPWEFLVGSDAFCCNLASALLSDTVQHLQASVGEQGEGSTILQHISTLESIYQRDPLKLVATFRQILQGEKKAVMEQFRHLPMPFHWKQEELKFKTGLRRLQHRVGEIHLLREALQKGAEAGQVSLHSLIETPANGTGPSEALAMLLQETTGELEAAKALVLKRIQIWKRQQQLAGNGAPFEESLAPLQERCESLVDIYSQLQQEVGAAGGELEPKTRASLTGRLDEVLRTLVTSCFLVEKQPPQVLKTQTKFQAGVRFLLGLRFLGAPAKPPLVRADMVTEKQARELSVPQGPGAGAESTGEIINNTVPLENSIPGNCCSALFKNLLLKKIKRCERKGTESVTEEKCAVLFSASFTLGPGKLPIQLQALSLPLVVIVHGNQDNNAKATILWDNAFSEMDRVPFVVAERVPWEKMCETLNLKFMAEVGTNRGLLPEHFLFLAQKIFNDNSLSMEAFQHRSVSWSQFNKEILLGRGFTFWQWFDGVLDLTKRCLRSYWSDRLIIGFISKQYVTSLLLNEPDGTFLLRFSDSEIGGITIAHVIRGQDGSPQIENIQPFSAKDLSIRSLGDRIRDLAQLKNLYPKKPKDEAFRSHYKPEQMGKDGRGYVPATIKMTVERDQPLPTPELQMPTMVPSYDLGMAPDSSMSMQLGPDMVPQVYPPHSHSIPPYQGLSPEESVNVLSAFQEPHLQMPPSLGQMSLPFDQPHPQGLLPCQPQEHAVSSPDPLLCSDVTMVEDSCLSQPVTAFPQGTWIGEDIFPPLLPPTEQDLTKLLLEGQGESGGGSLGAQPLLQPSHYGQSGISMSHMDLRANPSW
# In short: (§1)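 Fluorescein-labelled tracer (5 nM) with 200 nM STAT5 and/or STAT6 protein in PBS pH 7.4, 0.01% BGG, 0.01% Tween-20, 2 mM DTT. Mixed 15 min, then equilibrated 1 h at room temperature; read by fluorescence polarization, constants from nonlinear curve fitting.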
# STAT5A = target: T2, STAT5A (Homo sapiens, UniProt P42229); assay: Fluorescence polarization (FP) binding assay, STAT5A; conditions: FP competition, 5 nM fluorescein-labeled tracer, 200 nM protein, PBS pH7.4
# T2 sequence (P42229 1-794): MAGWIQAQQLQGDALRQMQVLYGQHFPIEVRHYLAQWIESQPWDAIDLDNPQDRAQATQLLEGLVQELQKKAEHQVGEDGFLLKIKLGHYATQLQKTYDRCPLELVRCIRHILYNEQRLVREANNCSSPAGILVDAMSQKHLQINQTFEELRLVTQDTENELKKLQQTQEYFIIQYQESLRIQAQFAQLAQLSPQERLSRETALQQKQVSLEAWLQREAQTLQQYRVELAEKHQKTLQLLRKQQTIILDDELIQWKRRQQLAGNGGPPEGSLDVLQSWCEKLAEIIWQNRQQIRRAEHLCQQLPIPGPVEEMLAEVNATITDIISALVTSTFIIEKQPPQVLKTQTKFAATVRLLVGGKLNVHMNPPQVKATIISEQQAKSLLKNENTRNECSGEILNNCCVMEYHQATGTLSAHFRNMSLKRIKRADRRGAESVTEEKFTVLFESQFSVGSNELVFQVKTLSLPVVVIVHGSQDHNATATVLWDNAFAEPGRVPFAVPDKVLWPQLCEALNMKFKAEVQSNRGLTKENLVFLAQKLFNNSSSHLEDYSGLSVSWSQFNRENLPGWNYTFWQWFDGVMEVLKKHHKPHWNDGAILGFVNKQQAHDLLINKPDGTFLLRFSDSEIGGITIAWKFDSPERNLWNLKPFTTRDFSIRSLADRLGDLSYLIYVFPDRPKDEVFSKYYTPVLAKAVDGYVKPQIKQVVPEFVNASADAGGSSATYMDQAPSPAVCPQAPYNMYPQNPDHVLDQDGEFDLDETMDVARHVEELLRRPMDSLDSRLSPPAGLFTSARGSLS
# In short: as §1
Compound,pKi (STAT6 protein),pKi (STAT5A)
"CC(C)(C)[C@H](NC(=O)c1cc2cc(C(F)(F)P(=O)(O)O)ccc2s1)C(=O)N1CCC[C@H]1C(=O)N1CCOC(c2ccncc2)C1 (stereo partly drawn) [Compound 131, ((2-(((2S)-3,3-dimethyl-1-oxo-1-((2S)-2-(2-(pyridin-4-yl)morpholine-4-carbonyl)pyrrolidin-1-yl)butan-2-yl)carbamoyl)benzo[b]thiophen-5-yl)difluoromethyl)phosphonic acid]",5.00 to 6.00,< 5.00
"CC(C)(C)[C@H](NC(=O)c1cc2cc(C(F)(F)P(=O)(O)O)ccc2s1)C(=O)N1CCC[C@H]1C(=O)N1CCOC(Cc2ccccc2)C1 (stereo partly drawn) [Compound 133, ((2-(((2S)-1-((2S)-2-(2-benzylmorpholine-4-carbonyl)pyrrolidin-1-yl)-3,3-dimethyl-1-oxobutan-2-yl)carbamoyl)benzo[b]thiophen-5-yl)difluoromethyl)phosphonic acid]",5.00 to 6.00,< 5.00
"CC(C)(C)[C@H](NC(=O)c1cc2cc(C(F)(F)P(=O)(O)O)ccc2s1)C(=O)N1CCC[C@H]1C(=O)N1CCOC(C2CCCCC2)C1 (stereo partly drawn) [Compound 134, ((2-(((2S)-1-((2S)-2-(2-cyclohexylmorpholine-4-carbonyl)pyrrolidin-1-yl)-3,3-dimethyl-1-oxobutan-2-yl)carbamoyl)benzo[b]thiophen-5-yl)difluoromethyl)phosphonic acid]",5.00 to 6.00,< 5.00
"CC(C)(C)[C@H](NC(=O)c1cc2cc(C(F)(F)P(=O)(O)O)ccc2s1)C(=O)N1CCC[C@H]1C(=O)N1CCC(O)C(c2ccccc2)C1 (stereo partly drawn) [Compound 137, (difluoro(2-(((2S)-1-((2S)-2-(4-hydroxy-3-phenylpiperidine-1-carbonyl)pyrrolidin-1-yl)-3,3-dimethyl-1-oxobutan-2-yl)carbamoyl)benzo[b]thiophen-5-yl)methyl)phosphonic acid]",5.00 to 6.00,< 5.00
"CC(C)(C)[C@H](NC(=O)c1cc2cc(C(F)(F)P(=O)(O)O)ccc2s1)C(=O)N1Cc2ccccc2C1C(=O)N1CCO[C@@H](c2ccccc2)C1 (stereo partly drawn) [Compound 142, ((2-(((2S)-3,3-dimethyl-1-oxo-1-(1-((S)-2-phenylmorpholine-4-carbonyl)isoindolin-2-yl)butan-2-yl)carbamoyl)benzo[b]thiophen-5-yl)difluoromethyl)phosphonic acid]",5.00 to 6.00,< 5.00
"C#CC[C@H](NC(=O)c1cc2cc(C(F)(F)P(=O)(O)O)ccc2s1)C(=O)N1CCC[C@H]1C(=O)N1CCO[C@H](c2ccccc2)C1 [Compound 147, (difluoro(2-(((S)-1-oxo-1-((S)-2-((R)-2-phenylmorpholine-4-carbonyl)pyrrolidin-1-yl)pent-4-yn-2-yl)carbamoyl)benzo[b]thiophen-5-yl)methyl)phosphonic acid]",6.00 to 7.00,< 5.00
"O=C(N[C@H](C(=O)N1CCC[C@H]1C(=O)N1CCO[C@H](c2ccccc2)C1)C1CC1)c1cc2cc(C(F)(F)P(=O)(O)O)ccc2s1 [Compound 148, ((2-(((S)-1-cyclopropyl-2-oxo-2-((S)-2-((R)-2-phenylmorpholine-4-carbonyl)pyrrolidin-1-yl)ethyl)carbamoyl)benzo[b]thiophen-5-yl)difluoromethyl)phosphonic acid]",6.00 to 7.00,5.00 to 6.00
"CC(C)(O)[C@H](NC(=O)c1cc2cc(C(F)(F)P(=O)(O)O)ccc2s1)C(=O)N1CCC[C@H]1C(=O)N1CCO[C@H](c2ccccc2)C1 [Compound 149, (difluoro(2-(((S)-3-hydroxy-3-methyl-1-oxo-1-((S)-2-((R)-2-phenylmorpholine-4-carbonyl)pyrrolidin-1-yl)butan-2-yl)carbamoyl)benzo[b]thiophen-5-yl)methyl)phosphonic acid]",6.00 to 7.00,< 5.00

# The next lines start with the values.
pKi (STAT6 protein),pKi (STAT5A),Compound
6.00 to 7.00,6.00 to 7.00,"CC(C)(C)[C@H](NC(=O)c1cc2cc(C(F)(F)P(=O)(O)O)ccc2s1)C(=O)N1CCC[C@H]1C(=O)N1CCSC(c2ccccc2)C1 (stereo partly drawn) [Compound 132, ((2-(((2S)-3,3-dimethyl-1-oxo-1-((2S)-2-(2-phenylthiomorpholine-4-carbonyl)pyrrolidin-1-yl)butan-2-yl)carbamoyl)benzo[b]thiophen-5-yl)difluoromethyl)phosphonic acid]"
6.00 to 7.00,5.00 to 6.00,"CC(C)(C)[C@H](NC(=O)c1cc2cc(C(F)(F)P(=O)(O)O)ccc2s1)C(=O)N1CCC[C@H]1C(=O)N1CCS(=O)(=O)[C@H](c2ccccc2)C1 [Compound 135, ((2-(((S)-1-((S)-2-((R)-1,1-dioxido-2-phenylthiomorpholine-4-carbonyl)pyrrolidin-1-yl)-3,3-dimethyl-1-oxobutan-2-yl)carbamoyl)benzo[b]thiophen-5-yl)difluoromethyl)phosphonic acid]"
6.00 to 7.00,5.00 to 6.00,"CC(C)(C)[C@H](NC(=O)c1cc2cc(C(F)(F)P(=O)(O)O)ccc2s1)C(=O)N1CCC[C@H]1C(=O)N1CCS(=O)(=O)[C@@H](c2ccccc2)C1 [Compound 136, ((2-(((S)-1-((S)-2-((S)-1,1-dioxido-2-phenylthiomorpholine-4-carbonyl)pyrrolidin-1-yl)-3,3-dimethyl-1-oxobutan-2-yl)carbamoyl)benzo[b]thiophen-5-yl)difluoromethyl)phosphonic acid]"
6.00 to 7.00,< 5.00,"CC(C)(C)[C@H](NC(=O)c1cc2cc(C(F)(F)P(=O)(O)O)ccc2s1)C(=O)N1CCC[C@H]1C(=O)N1CCOC(c2ccccn2)C1 (stereo partly drawn) [Compound 140, ((2-(((2S)-3,3-dimethyl-1-oxo-1-((2S)-2-(2-(pyridin-2-yl)morpholine-4-carbonyl)pyrrolidin-1-yl)butan-2-yl)carbamoyl)benzo[b]thiophen-5-yl)difluoromethyl)phosphonic acid]"
6.00 to 7.00,5.00 to 6.00,"CC(C)(C)[C@H](NC(=O)c1cc2cc(C(F)(F)P(=O)(O)O)ccc2s1)C(=O)N1Cc2ccccc2C1C(=O)N1CCO[C@H](c2ccccc2)C1 (stereo partly drawn) [Compound 141, ((2-(((2S)-3,3-dimethyl-1-oxo-1-(1-((R)-2-phenylmorpholine-4-carbonyl)isoindolin-2-yl)butan-2-yl)carbamoyl)benzo[b]thiophen-5-yl)difluoromethyl)phosphonic acid]"
6.00 to 7.00,5.00 to 6.00,"CCC(CC)[C@H](NC(=O)c1cc2cc(C(F)(F)P(=O)(O)O)ccc2s1)C(=O)N1CCC[C@H]1C(=O)N1CCO[C@H](c2ccccc2)C1 [Compound 144, ((2-(((S)-3-ethyl-1-oxo-1-((S)-2-((R)-2-phenylmorpholine-4-carbonyl)pyrrolidin-1-yl)pentan-2-yl)carbamoyl)benzo[b]thiophen-5-yl)difluoromethyl)phosphonic acid]"
6.00 to 7.00,< 5.00,"CC(C)(C)[C@H](NC(=O)c1ccc2cc(C(F)(F)P(=O)(O)O)ccc2c1)C(=O)N1CCC[C@H]1C(=O)N1CCO[C@H](c2ccccc2)C1 [Compound 145, ((6-(((S)-3,3-dimethyl-1-oxo-1-((S)-2-((R)-2-phenylmorpholine-4-carbonyl)pyrrolidin-1-yl)butan-2-yl)carbamoyl)naphthalen-2-yl)difluoromethyl)phosphonic acid]"
6.00 to 7.00,5.00 to 6.00,"CC[C@H](NC(=O)c1cc2cc(C(F)(F)P(=O)(O)O)ccc2s1)C(=O)N1CCC[C@H]1C(=O)N1CCO[C@H](c2ccccc2)C1 [Compound 146, (difluoro(2-(((S)-1-oxo-1-((S)-2-((R)-2-phenylmorpholine-4-carbonyl)pyrrolidin-1-yl)butan-2-yl)carbamoyl)benzo[b]thiophen-5-yl)methyl)phosphonic acid]"
